Data from US6653344B2, “Pharmaceutical preparations containing a dibenzocyclooctane lignan derivative for treatment of neurodegenerative disease” (Elcom Bio Technology Co., Ltd., priority 2000, dated 2003).

What was measured:
Format in all cases: cell-based
[1] = system: NMDA-insulted primary cultured rat cortical cells; assay: Neuroprotection against NMDA-induced toxicity, cell viability by MTT assay; details: for Viability (%) NMDA-insulted: compound 1 µM for 1 hr, then 50 µM NMDA, 24 hr
Procedure: Primary cultures of mixed cortical cells containing both neuron and glia were prepared from fetal rats as described previously (Kim Y C, Kim S R, Markelonis G J and Oh T H (1998) Ginsenosides Rb1 and Rg3 protect cultured rat cortical cells from glutamate-induced neurodegeneration. J. Neurosci. Res. 53: 426-432).
The cortical cells were plated onto collagen-coated dishes at a density of 1×10^6 cells/ml. The cultured cells were grown in DMEM supplemented with 10% heat-inactivated fetal calf serum, 1 mM sodium pyruvate, 100 IU/ml pecicillin and 100 μg/ml streptomycin at 37° C. in a humidified atmosphere of 95% air/5% CO2. cultures were allowed to mature for 2 weeks before being used for experiments.
To culture broth of the cortical cells during being cultured, MTT(5 mg/ml) was added by 10% of the culture broth. The broth was cultured for more 3 hours. The formed formazan was dissolved by DMSO and was assayed absorption at 540 nm ((Mosmann T (1983) Rapid colorimetric assay for cellular growth and survival: Application to proliferation and cytotoxicity assays. J. Immuno. Methods 65: 55-61)
Glutamate receiptor is divided into NMDA receiptor which is activated by NMDA and non-NMDA receiptor which is activated by alpha-amino-3-hydroxy-5-methyl-4-isoxazole and kainic acid (KA). To first cultured cortical cells, the above compounds were each treated. The neuro-protective activities of the compounds were measured, after toxicities were induced by NMDA, the NMDA receiptor agonist, or KA, the non-NMDA receiptor agonist.
Rat cortical cultures were treated with compounds at the concentration of 1 M for 1 hr. The cultures were then exposed to 50 µM NMDA or 50 µM KA and were maintained for an additional 24 hr. […]. Cell viability was measured by the MTT assay. Optical density of control, NMDA- and KA treated were 1.20±0.10, 0.77±0.05 and 0.85±0.08, respectively. Viability was calculated as the same as Table 1. Values given represent the mean SD (n=3).

[2] = system: intracellular Ca2+ ([Ca2+]i) in glutamate-damaged primary cultured rat cortical cells; assay: Measurement of Ca2+ concentration in cells (Fura-2 AM); details: for Protection ([Ca2+]i): compound 1 M (1 μM) for 1 hr before 100 M glutamate; for Protection ([Ca2+]i) / [Ca2+]i: 24 hr; for [Ca2+]i: compound for 1 hr, control 85.6, glutamate-treated 419.0
Procedure: Therefore, the effects of Ca^2+ influx by glutamate according to deoxyschizandrin, gomisin N and wuweizisu C were investigated.
(§1) Rat cortical cultures were treated with compounds at the concentration of 1 M for 1 hr before exposure to 100 M glutamate and then maintained for 24 hr. Values given represent the mean SD (n=3).

[3] = system: nitric oxide (NO) content in glutamate-damaged primary cultured rat cortical cells; assay: Measurement of nitrite (Griess reagent), NO content; details: 24 hr; for Nitrate: compound 1 µM for 1 hr before 100 µM glutamate, control 90.2, glutamate-treated 141.8; for Protection (NO content): compound 1 M (1 μM) for 1 hr before 100 M glutamate
Procedure: The content of nitrite isolated into culture broth from first cultured cortical cells was assayed by using Griess reagent by Dawson's method (Dawson V L, Brahbhatt H P, Mong J A and Dawson T M (1994) Expression of inducible nitric oxide synthase causes delayed neurotoxicity in primary neuronal-glial cortical cultures. Neuropharmacology 33: 1425-1430).
(§2) In case glutamate is treated to first cultured cortical cells of mice, formation of NO is increased. […] When schizandrin is treated at the 1 μM concentration, it decreased NO content increased by glutamate. […] When deoxyschizandrin, gomisin N and wuweizisu C are treated at 1 uM concentration to first cultured cortical cells toxicity-induced by glutamate, those maintained about 50% of normal state activity of GSH-px and glutathione decreased by glutamate and have protective activity on the activity of antioxidant enzymes.
as §1

[4] = system: GSH-px activity in glutamate-injured primary cultured rat cortical cells; assay: Measurement of glutathione peroxidase activity (GSH-px); details: 24 hr; for GSH-px: compound 1 µM for 1 hr before 100 µM glutamate, control 18.7, glutamate-treated 9.2; for Protection (GSH-px activity): compound 1 M (1 uM) for 1 hr before 100 M glutamate
Procedure: (§3) Cells were collected by adding 0.1M potassium phosphate buffer (pH 7.4) to culture-broth-removed remainings from first cultured cortical cells. The collected cells were treated by supersonic wave for 20 seconds and were centrifuged at 4° C. with 3,000 g for 20 minutes to obtain the supernatant.
1 ml solution in test tube comprising 100 mM potassium phosphate buffer (pH 7.4), 1 mM reduced glutathione (GSH), 0.2 mM NADPH, 0.5 mM H2O2 and 1.5 units/ml of GSSG-reductase (GSSG-r) was prepared and 10 μl of cell supernatant was added and reacted. The loss of adsoption at 340 nm was assayed and the activity of GSH-px was measured.
as §2, §1

[5] = system: GSH content in glutamate-injured primary cultured rat cortical cells; assay: Measurement of total GSH (GSH+GSSG); details: 24 hr; for GSH: compound 1 µM for 1 hr before 100 µM glutamate, control 6.9, glutamate-treated 2.6; for Protection (GSH content): compound 1 M (1 uM) for 1 hr before 100 M glutamate
Procedure: as §3
In test tube, 70 μl solution containing 0.3 mM NADPH and 5 mM DTNB was prepared 0.100 μl of cell supernatant was added and final content 5 units/ml of GSSG-R was added thereto and was reacted. The increase of adsorption was measured at 412 nm for 1 minute. The content of GSH was converted and obtained by comparing the content of GSH with GSH standard. (Tietze F, Enzymatic method for quantative determination of nanogram amounts of total and oxidized glutathione, Anal Biochem 27: 502-522).
as §2, §1

SMILES | Viability (%) NMDA-insulted [1] | effect on Ca2+ influx by glutamate (in words) [2] | Protection ([Ca2+]i) [2] | [Ca2+]i [2] | Nitrate [3] | Protection (NO content) [3] | GSH-px [4] | Protection (GSH-px activity) [4] | Protection (GSH-px activity) ([4]; listed as deoxyschizandrin) | GSH [5] | Protection (GSH content) [5] | Protection (GSH content) ([5]; listed as deoxyschizandrin) | neuroprotective activity against toxicity induced by NMDA (in words) [1] | Protection ([Ca2+]i) ([2]; listed as gomisin N) | Protection (GSH-px activity) ([4]; listed as gomisin N) | Protection (GSH content) ([5]; listed as gomisin N) | Protection (GSH-px activity) ([4]; listed as wuweizisu C) | Protection (GSH content) ([5]; listed as wuweizisu C)
COc1cc2c(c(OC)c1OC)-c1c(cc(OC)c(OC)c1OC)C[C@H](C)[C@H](C)C2 [Deoxyschizandrin, deoxyschizandrin] | 11.0 ± 3.5% | did not significantly effect | 20.5% | 350.7 ± 18.2 nM | 121.9 ± 3.1 nM | 40.2% | 15.3 ± 3.0 μmol NADPH consumed/min/mg pro | 62.1% | about 50% | 4.7 ± 1.1 μmol/mg protein | 48.8% | about 50% |  |  |  |  |  | 
COc1cc2c(c(OC)c1OC)-c1c(cc3c(c1OC)OCO3)C[C@H](C)[C@H](C)C2 [Gomisin N, gomisin N] | 45.5 ± 6.8 % |  | 60.3% | 218.0 ± 11.9 nM | 111.4 ± 3.3 nM | 60.2% | 14.6 ± 4.1 μmol NADPH consumed/min/mg pro | 56.8% |  | 4.8 ± 1.3 μmol/mg protein | 51.2% |  | relatively better neuroprotective activity | 50.3% | about 50% | about 50% |  | 
COc1c2c(cc3c1-c1c(cc4c(c1OC)OCO4)C[C@H](C)[C@H](C)C3)OCO2 [Wuweizisu C, wuweizisu C] | 52.1 ± 7.1 % |  | 67.9% | 192.6 ± 9.1 nM | 107.6 ± 2.9 nM | 65.8% | 13.9 ± 3.9 μmol NADPH consumed/min/mg pro | 49.5% |  | 4.4 ± 0.9 μmol/mg protein | 41.9% |  | has neuroprotective activity |  |  |  | about 50% | about 50%
